Patent publication US20240246946A1, “MODULATORS OF TREX1” (Constellation Pharmaceuticals, Inc., priority 2021, published 2024)

How the values were obtained:
[1] = target: T1, full length human TREX1 (Homo sapiens, UniProt Q9NSU2); assay: hTREX1 Biochemical Assay (fluorescence, dsDNA substrate degradation); settings: biochemical, read-out: hTREX1 IC50
T1 construct: N-terminally His-Tev tagged full length human TREX1; made in house; host or cells: E. coli
T1 sequence (Q9NSU2 1-314): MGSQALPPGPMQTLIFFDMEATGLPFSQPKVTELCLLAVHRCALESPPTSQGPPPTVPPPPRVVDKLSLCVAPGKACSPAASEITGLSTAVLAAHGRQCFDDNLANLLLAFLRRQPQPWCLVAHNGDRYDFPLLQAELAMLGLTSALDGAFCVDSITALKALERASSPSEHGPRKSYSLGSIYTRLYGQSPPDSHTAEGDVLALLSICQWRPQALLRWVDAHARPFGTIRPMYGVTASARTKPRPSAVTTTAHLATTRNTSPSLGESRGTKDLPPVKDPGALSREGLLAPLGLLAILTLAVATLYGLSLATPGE
Outline: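 Cleavage of 60 nM TEX615/quencher-labelled dsDNA in pH 7.4 Tris buffer with 5 mM MgCl2, 1.0% DMSO, run 18 hours at 25° C, EDTA-quenched; fluorescence read-out.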

[2] = target: T2, hTREX1 (Homo sapiens, UniProt Q9NSU2); assay: hTREX1 HCT116 Cell Assay (HCT116 dual cells, Lucia luciferase reporter of Type I interferon induction); assay type: cell-based; settings: TREX1i 4 h before pBR322/BstNI transfection, read after 48 h
T2 construct: host or cells: HCT116 dual cells
T2 sequence (Q9NSU2 1-314): T1 sequence (Q9NSU2 1-314)
Outline: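 HCT116 dual cells carrying an ISRE-type STAT1/STAT2-driven secreted Lucia luciferase reporter were pretreated with TREX1 inhibitor for 4 h (≤0.1% DMSO), then transfected with pBR322/BstNI DNA (100 ng/well, Lipofectamine LTX). Luciferase in medium read after 48 h at 37 °C.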

[3] = target: T3, human TREX2 (residues M44-A279) (Homo sapiens, UniProt Q9BQ50); assay: hTREX2 Biochemical Assay (fluorescence, dsDNA substrate degradation); settings: biochemical selectivity for hTREX1 vs hTREX2
T3 construct: human TREX2 (residues M44-A279, expressed in E. coli); made in house; host or cells: E. coli
T3 sequence (Q9BQ50 44-279 isoform Q9BQ50-1): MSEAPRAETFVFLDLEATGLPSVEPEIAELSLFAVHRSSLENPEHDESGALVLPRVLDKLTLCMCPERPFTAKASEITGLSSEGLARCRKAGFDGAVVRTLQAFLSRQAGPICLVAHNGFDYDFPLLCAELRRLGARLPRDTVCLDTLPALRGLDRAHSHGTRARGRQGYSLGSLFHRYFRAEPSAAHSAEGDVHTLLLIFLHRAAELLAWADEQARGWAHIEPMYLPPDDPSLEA
Outline: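 N-His-Tev E. coli enzyme (50 pM) pre-incubated with compound 4 h at 25 °C, then 60 nM TEX615/quencher dsDNA added; 18 h at 25 °C, pH 7.4 Tris buffer with 5 mM MgCl2, 1.0% DMSO. EDTA-quenched; fluorescence 570 ex/615 em from liberated fluorophore, 10-point dose-response.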

[4] = target: T4, full length mouse TREX1 (Mus musculus, UniProt Q91XB0); assay: mTREX1 Biochemical Assay (fluorescence, dsDNA substrate degradation); settings: biochemical, read-out: mTREX1 IC50
T4 construct: N-terminally His-Tev tagged full length mouse TREX1; made in house; host or cells: E. coli
T4 sequence (Q91XB0 1-314): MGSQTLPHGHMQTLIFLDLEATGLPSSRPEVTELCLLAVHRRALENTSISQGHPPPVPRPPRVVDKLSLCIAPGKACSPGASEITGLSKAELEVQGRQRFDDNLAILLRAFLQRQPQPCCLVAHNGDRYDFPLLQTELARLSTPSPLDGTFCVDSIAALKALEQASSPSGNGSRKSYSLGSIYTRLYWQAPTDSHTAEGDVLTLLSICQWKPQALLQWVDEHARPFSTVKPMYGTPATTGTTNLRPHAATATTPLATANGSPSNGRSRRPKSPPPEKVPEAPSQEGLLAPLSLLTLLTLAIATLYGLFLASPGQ
Outline: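 Reaction run 18 h at 25° C. with 60 nM TEX615/quencher-labelled dsDNA and 6 pM mouse TREX1 in Tris buffer (pH 7.4, 5 mM MgCl2, 1.0% DMSO), enzyme having sat 4 h with compound across 10 concentrations. EDTA quench; substrate degradation measured as fluorescence increase.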

## CCn1cc(C(c2ccccc2C#N)C(C)c2nc(C(=O)Nc3cnoc3)c(O)c(=O)n2C)c(C)n1 (single isomer, unassigned) [Example 70 D1E1]
[1]
  IC50: < 1 nM
[2]
  IC50: < 10 nM
[3]
  hTREX1 vs hTREX2 selectivity: C (C = >50 fold selective for hTREX1)
[4]
  IC50: < 1 nM

## COCCn1cc(C(c2ccccc2C#N)C(C)c2nc(C(=O)Nc3cnoc3)c(O)c(=O)n2C)c(C)n1 (single isomer, unassigned) [Example 71 D1E1]
[1]
  IC50: < 1 nM
[2]
  IC50: < 10 nM
[3]
  hTREX1 vs hTREX2 selectivity: C (C = >50 fold selective for hTREX1)
[4]
  IC50: < 1 nM

## CC(c1nc(C(=O)Nc2cnoc2)c(O)c(=O)n1C)C(c1cnn(C)c1)c1ccccc1Cl (single isomer, unassigned) [Example 77 D1E2]
[1]
  IC50: > 10 nM
[2]
  IC50: > 100 nM
[3]
  hTREX1 vs hTREX2 selectivity: A (A = <25 fold selective for hTREX1)
[4]
  IC50: > 10 nM

## CC(c1nc(C(=O)Nc2cnoc2)c(O)c(=O)n1C)C(c1cnn(C)c1)c1ccccc1Cl (single isomer, unassigned) [Example 77 D2E1]
[1]
  IC50: > 10 nM
[2]
  IC50: > 100 nM
[3]
  hTREX1 vs hTREX2 selectivity: A (A = <25 fold selective for hTREX1)
[4]
  IC50: > 10 nM

## CC(c1nc(C(=O)Nc2cnoc2)c(O)c(=O)n1C)C(c1nnn(C)n1)c1ccccc1C#N (single isomer, unassigned) [Example 79 D1E2]
[1]
  IC50: 1 to 10 nM
[2]
  IC50: > 100 nM
[3]
  hTREX1 vs hTREX2 selectivity: B (B = 25 to 50-fold selective for hTREX1)
[4]
  IC50: > 10 nM

## CC(c1nc(C(=O)Nc2cnoc2)c(O)c(=O)n1C)C(c1cnn(C)c1)c1ccc(O)cc1C#N (single isomer, unassigned) [Example 80 D1E1]
[1]
  IC50: < 1 nM
[2]
  IC50: > 100 nM
[3]
  hTREX1 vs hTREX2 selectivity: C (C = >50 fold selective for hTREX1)
[4]
  IC50: 1 to 10 nM

## Cc1ncc(C(c2ccccc2C#N)C(C)c2nc(C(=O)Nc3cnoc3)c(O)c(=O)n2C)nc1C (single isomer, unassigned) [Example 81 D2E1]
[1]
  IC50: 1 to 10 nM
[2]
  IC50: > 100 nM
[3]
  hTREX1 vs hTREX2 selectivity: B (B = 25 to 50-fold selective for hTREX1)
[4]
  IC50: > 10 nM

## Cc1cnc(C)c(C(c2ccccc2C#N)C(C)c2nc(C(=O)Nc3cnoc3)c(O)c(=O)n2C)n1 (single isomer, unassigned) [Example 82 D1E1]
[1]
  IC50: < 1 nM
[2]
  IC50: < 10 nM
[3]
  hTREX1 vs hTREX2 selectivity: C (C = >50 fold selective for hTREX1)
[4]
  IC50: 1 to 10 nM

## Cc1cnc(C)c(C(c2ccccc2C#N)C(C)c2nc(C(=O)Nc3cnoc3)c(O)c(=O)n2C)n1 (single isomer, unassigned) [Example 82 D2E1]
[1]
  IC50: 1 to 10 nM
[2]
  IC50: > 100 nM
[3]
  hTREX1 vs hTREX2 selectivity: C (C = >50 fold selective for hTREX1)
[4]
  IC50: > 10 nM

## Cc1nccc(C(c2ccccc2C#N)C(C)c2nc(C(=O)Nc3cnoc3)c(O)c(=O)n2C)n1 (single isomer, unassigned) [Example 83 D1E1]
[1]
  IC50: < 1 nM
[2]
  IC50: 10 to 100 nM
[3]
  hTREX1 vs hTREX2 selectivity: C (C = >50 fold selective for hTREX1)
[4]
  IC50: > 10 nM

## Cc1nccc(C(c2ccccc2C#N)C(C)c2nc(C(=O)Nc3cnoc3)c(O)c(=O)n2C)n1 (single isomer, unassigned) [Example 83 D2E1]
[1]
  IC50: 1 to 10 nM
[2]
  IC50: > 100 nM
[3]
  hTREX1 vs hTREX2 selectivity: B (B = 25 to 50-fold selective for hTREX1)
[4]
  IC50: > 10 nM

## Cc1cnn(C)c1C(c1ccccc1C#N)C(C)c1nc(C(=O)Nc2cnoc2)c(O)c(=O)n1C (single isomer, unassigned) [Example 84 D1E1]
[1]
  IC50: < 1 nM
[2]
  IC50: 10 to 100 nM
[3]
  hTREX1 vs hTREX2 selectivity: B (B = 25 to 50-fold selective for hTREX1)
[4]
  IC50: 1 to 10 nM

## CCn1cc(C(c2ccccc2Cl)C(C)c2nc(C(=O)Nc3cnoc3)c(O)c(=O)n2C)cn1 (single isomer, unassigned) [Example 85 D1E1]
[1]
  IC50: < 1 nM
[2]
  IC50: 10 to 100 nM
[3]
  hTREX1 vs hTREX2 selectivity: B (B = 25 to 50-fold selective for hTREX1)
[4]
  IC50: < 1 nM

## CCn1cc(C(c2ccccc2Cl)C(C)c2nc(C(=O)Nc3cnoc3)c(O)c(=O)n2C)cn1 (single isomer, unassigned) [Example 85 D1E2]
[1]
  IC50: 1 to 10 nM
[2]
  IC50: > 100 nM
[3]
  hTREX1 vs hTREX2 selectivity: A (A = <25 fold selective for hTREX1)
[4]
  IC50: > 10 nM

## CCn1cc(C(c2ccccc2Cl)C(C)c2nc(C(=O)Nc3cnoc3)c(O)c(=O)n2C)cn1 (single isomer, unassigned) [Example 85 D2E1]
[1]
  IC50: > 10 nM
[2]
  IC50: > 100 nM
[3]
  hTREX1 vs hTREX2 selectivity: A (A = <25 fold selective for hTREX1)
[4]
  IC50: > 10 nM

## CC(c1nc(C(=O)Nc2cnoc2)c(O)c(=O)n1C)C(c1cnn(CC(C)(C)O)c1)c1ccccc1Cl (single isomer, unassigned) [Example 86 D1E1]
[1]
  IC50: < 1 nM
[2]
  IC50: > 100 nM
[3]
  hTREX1 vs hTREX2 selectivity: B (B = 25 to 50-fold selective for hTREX1)
[4]
  IC50: 1 to 10 nM

## CC(c1nc(C(=O)Nc2cnoc2)c(O)c(=O)n1C)C(c1cnn(CC2COC2)c1)c1ccccc1Cl (single isomer, unassigned) [Example 88 D1E1]
[1]
  IC50: < 1 nM
[2]
  IC50: > 100 nM
[3]
  hTREX1 vs hTREX2 selectivity: A (A = <25 fold selective for hTREX1)
[4]
  IC50: 1 to 10 nM

## CC(c1nc(C(=O)Nc2cnoc2)c(O)c(=O)n1C)C(c1cc(F)ccc1Cl)c1cn(C)nc1C#N (single isomer, unassigned) [Example 89 D1E2]
[1]
  IC50: < 1 nM
[2]
  IC50: < 10 nM
[3]
  hTREX1 vs hTREX2 selectivity: C (C = >50 fold selective for hTREX1)
[4]
  IC50: 1 to 10 nM

## CC(c1nc(C(=O)Nc2cnoc2)c(O)c(=O)n1C)C(c1ccccc1C#N)c1cn(C)nc1F (single isomer, unassigned) [Example 91 D1E2]
[1]
  IC50: > 10 nM
[2]
  IC50: > 100 nM
[3]
  hTREX1 vs hTREX2 selectivity: A (A = <25 fold selective for hTREX1)
[4]
  IC50: > 10 nM

## CC(c1nc(C(=O)Nc2cnoc2)c(O)c(=O)n1C)C(c1cnn(CC(C)(C)O)c1)c1cc(F)ccc1Cl (single isomer, unassigned) [Example 92 D1E1]
[1]
  IC50: 1 to 10 nM
[2]
  IC50: > 100 nM
[3]
  hTREX1 vs hTREX2 selectivity: A (A = <25 fold selective for hTREX1)
[4]
  IC50: 1 to 10 nM

## COC(C)(C)Cn1cc(C(c2cc(F)ccc2Cl)C(C)c2nc(C(=O)Nc3cnoc3)c(O)c(=O)n2C)cn1 (single isomer, unassigned) [Example 93 D1E1]
[1]
  IC50: 1 to 10 nM
[2]
  IC50: 10 to 100 nM
[3]
  hTREX1 vs hTREX2 selectivity: B (B = 25 to 50-fold selective for hTREX1)
[4]
  IC50: 1 to 10 nM

## COC(C)(C)Cn1cc(C(c2cc(F)ccc2Cl)C(C)c2nc(C(=O)Nc3cnoc3)c(O)c(=O)n2C)cn1 (single isomer, unassigned) [Example 93 D1E2]
[1]
  IC50: 1 to 10 nM
[2]
  IC50: > 100 nM
[3]
  hTREX1 vs hTREX2 selectivity: A (A = <25 fold selective for hTREX1)
[4]
  IC50: > 10 nM

## CC(c1nc(C(=O)Nc2cnoc2)c(O)c(=O)n1C)C(c1cnn(CC2COC2)c1)c1cc(F)ccc1Cl (single isomer, unassigned) [Example 94 D1E1]
[1]
  IC50: 1 to 10 nM
[2]
  IC50: > 100 nM
[3]
  hTREX1 vs hTREX2 selectivity: B (B = 25 to 50-fold selective for hTREX1)
[4]
  IC50: 1 to 10 nM

## Cc1n[nH]c(C)c1C(c1ccccc1C#N)C(C)c1nc(C(=O)Nc2cnoc2)c(O)c(=O)n1C (single isomer, unassigned) [Example 95 D1E1]
[1]
  IC50: < 1 nM
[2]
  IC50: < 10 nM
[3]
  hTREX1 vs hTREX2 selectivity: C (C = >50 fold selective for hTREX1)
[4]
  IC50: 1 to 10 nM
